Experimental data taken from patent publication US11957792B2, “Taste-masked pharmaceutical compositions containing diclofenac” (GLATT AG, priority 2012, dated 2024).
Values after ≈ are worked out from the molar mass of the structure shown.

Assays:
[1] = Agglomerate formation at pH 1.1 (such as gastric fluid); assay type: physicochemical
[2] = Equilibrium solubility, saturation shake-flask method; assay type: physicochemical; conditions: 37 °C, thermodynamic from solid, mean ± SD (n=3)
Method: The solubility of diclofenac free acid, sodium and potassium was comparatively evaluated in media reflecting the oral way of administration, as e.g. with different pH values. The equilibrium solubility was determined using the saturation shake-flask method. Briefly, an excess amount of drug was added into the different media maintained at 37±0.5° C. and shaken for at least 24 hours. After equilibrium was reached, the excess of solid was removed and the diclofenac concentration in the supernatant solutions was determined by HPLC.

Row | formation of agglomerates [1] | solubility ([2]; 0.1N HCl, pH 1.1, simulated gastric fluid, 0.1N HCl pH 1.1) | solubility ([2]; simulated gastric fluid, pH 1.6, simulated gastric fluid, Simulated gastric fluid pH 1.6) | Compound
1 | not diclofenac acid form agglomerates | 2.49 ± 0.15 µg/mL (≈ 8.41 µM) | 1.72 ± 0.01 µg/mL (≈ 5.81 µM) | O=C(O)Cc1ccccc1Nc1c(Cl)cccc1Cl [Diclofenac acid, 2-[(2,6-Dichlorophenyl)amino]benzeneacetic acid]
2 | form agglomerates | – | – | O=C(O)Cc1ccccc1Nc1c(Cl)cccc1Cl [Diclofenac potassium]
3 | form agglomerates | – | – | O=C(O)Cc1ccccc1Nc1c(Cl)cccc1Cl [Diclofenac sodium]
